Laboratory results published in article PMC12316891, “A bottom-up approach to find lead compounds in expansive chemical spaces” (Communications Chemistry, 2025).
Read-outs that look alike come from different tables or passages of the source.

Assays:
His6-BRD4 (BD1) = target: T1, His6-BRD4 (BD1) (Homo sapiens, UniProt O60885); experiment: Surface plasmon resonance (SPR) single-dose screening; type: binding; parameters: key to SPR RESULT: Positive: compounds were considered as SPR hits also when their average signal was further than two standard deviations apart from the average signal of the blank samples (1% DMSO); settings: for RUs at [10 µM]: SPR, compound 10 µM, 1% DMSO, n = 2, decimal comma; for SPR RESULT: single dose 10 µM, n = 2
T1 construct: A pET28 plasmid containing residues 44–168 of BRD4 (BD1), a 6xHis tag, a TEV protease cleavage site; made in house; host or cells: E. coli Rosetta (D3)

BRD4 (BD1) [1] = target: T2, BRD4 (BD1) (Homo sapiens, UniProt O60885); experiment: Differential scanning fluorimetry (DSF) single-dose thermal shift screening; type: binding; settings: for ΔTm at 10 µM: read-out: ΔTm ºC at [10 µM]
T2 construct: A pET28 plasmid containing residues 44–168 of BRD4 (BD1), a 6xHis tag, a TEV protease cleavage site; 6xHis (N, cleaved yes); made in house; host or cells: E. coli Rosetta (D3)

BRD4 (BD1) [2] = target: T2, BRD4 (BD1); experiment: Competitive HTRF TR-FRET binding assay (displacement of acetylated histone H4 peptide); settings: 16-point titration 0.1 nM to 10 µM, n = 2, Negative = curve could not be fitted to a sigmoidal curve; for IC50: read-out: TR-FRET IC50
Description: To further quantitatively characterize the DSF/SPR hits compounds obtained in the single-dose screenings, we selected HTRF TR-FRET. Specifically, we employed a competitive HTRF TR-FRET experiment to measure the compound’s capacity to displace an acetylated peptide from the binding site of BRD4 (BD1). For each molecule, a 16-point concentration curve was titrated against the peptide-BRD (BD1) complex and incubated for 1.5 h. A compound was considered a positive binder if we could fit its titration curve to a sigmoidal curve to determine its IC50. […] Compound screening was carried out in 384-well, white, round-bottom, small-volume plates (CORNING) in a final volume of 20 µL of 50 mM HEPES (pH 7.4), 50 mM NaCl, 400 mM KF, 0.5 mM CHAPS, and 0.05% BSA. […] Then, the labeled anti-His6-XL665 antibody (CisBio) (10 nM) was added to the mixture and incubated for 15 min, before the Eu3+ cryptate-conjugated streptavidin (2 nM) (CisBio) was added and incubated for 15 min. All incubations were performed at room temperature. […] Titration of (+)−JQ1 was used as a positive control for each experiment.

[3] = DSF, compound 10 µM, BRD4 (BD1) 2 µM, n = 3, decimal comma

| Structure (SMILES) | RUs at [10 µM] (His6-BRD4 (BD1)) | ΔTm at 10 µM (BRD4 (BD1) [1]) | ΔTm ºC at [10 µM] (BRD4 (BD1) [1]; [3]) | SPR RESULT (His6-BRD4 (BD1)) | TR-FRET IC50 (nM) (BRD4 (BD1) [2]) | ΔTm at 10 µM (BRD4 (BD1) [1]; [3]) | IC50 (BRD4 (BD1) [2]) |
| --- | --- | --- | --- | --- | --- | --- | --- |
| COc1cc2c(cc1-c1c(C)noc1C)ncc1[nH]c(=O)n([C@H](C)c3ccccn3)c12 [Compound 2, CC1=C(C(=NO1)C)C2=C(C=C3C(=C2)N=CC4=C3N(C(=O)N4)C(C)C5=CC=CC=N5)OC, reference compound] | 95,35 ± 25,76 RUs |  |  |  |  |  |  |
| Cc1sc2c(c1C)C(c1ccc(Cl)cc1)=NC(CC(=O)OC(C)(C)C)c1nnc(C)n1-2 (stereo not drawn) [Compound 3, CC1=C(SC2=C1C(=NC(C3=NN=C(N32)C)CC(=O)OC(C)(C)C)C4=CC=C(C=C4)Cl)C, reference compound] | 99,15 ± 6,82 RUs | 9.28 °C |  |  |  |  |  |
| COc1ccc(-n2c(C)nnc2SCC(=O)Nc2ccc(C)c(Cl)c2Cl)cc1 [Compound 12, COC=1C=CC(=CC1)N2C(C)=NN=C2SCC(=O)NC=3C=CC(C)=C(Cl)C3Cl] | 78,35 ± 18,49 RUs |  | -0,57 ± 0,38 ºC | Positive | Negative |  |  |
| Cn1ccnc1C1CCN(C(=O)c2nn(C)c(=O)c3ccccc23)C1 (stereo not drawn) [Compound 13, CN1C=CN=C1C2CCN(C2)C(=O)C3=NN(C)C(=O)C=4C=CC=CC34] | 5,53 ± 2,74 RUs |  |  | Negative |  | 0.45 °C | 0.00146 µM |
| COc1ccc(NS(=O)(=O)c2cc(C(=O)Nc3ccc4nnc(C(C)C)n4c3)ccc2F)cc1 [Compound 14, COC=1C=CC(NS(=O)(=O)C=2C=C(C=CC2F)C(=O)NC=3C=CC4=NN=C(C(C)C)N4C3)=CC1] | 23,29 ± 9,67 RUs |  |  | Negative |  | 1.94 °C | 0.661 µM |
| COc1ccc2c(c1)N(C(=O)c1cn(C)c(=O)c3ccccc13)CC2 [Compound 15, COC=1C=CC=2CCN(C(=O)C3=CN(C)C(=O)C=4C=CC=CC34)C2C1] | 28,19 ± 22,85 RUs |  |  | Negative |  | 1.71 °C | 1.01 µM |
| CCCc1c(C(=O)NCc2cccc3c2OCCO3)[nH]c(C)c1C(C)=O [Compound 16, CCCC1=C(NC(C)=C1C(=O)C)C(=O)NCC=2C=CC=C3OCCOC23] | 20,24 ± 10,15 RUs |  |  | Negative |  | -0.43 °C | 1.09 µM |
| COc1ccc(-n2c(C)nnc2SCC(=O)Nc2cn(C)nc2C(N)=O)cc1 [Compound 17, COC=1C=CC(=CC1)N2C(C)=NN=C2SCC(=O)NC3=CN(C)N=C3C(=O)N] | 9,07 ± 0,52 RUs |  |  | Positive |  | 1.17 °C | 0.192 µM |
| COc1ccc(C2(NCC(=O)Nc3cc(-n4nnnc4C)ccc3F)CCOCC2)cc1 [Compound 18, COC=1C=CC(=CC1)C2(CCOCC2)NCC(=O)NC=3C=C(C=CC3F)N4N=NN=C4C] | 2,91 ± 1,98 RUs |  |  | Negative |  | -0.7 °C | 1.14 µM |
| COc1ccc(-n2c(C)nnc2SCC(=O)NCc2ccc(F)c(C)c2)cc1 [Compound 19, COC=1C=CC(=CC1)N2C(C)=NN=C2SCC(=O)NCC=3C=CC(F)=C(C)C3] | 33,98 ± 20,29 RUs |  |  | Negative |  | 1.36 °C | 0.543 µM |
| Cc1ccc(CNC(=O)c2ccc3nnc(C)c(C)c3c2)c(OC2CCOC2)c1 (stereo not drawn) [Compound 20, CC=1C=CC(CNC(=O)C=2C=CC=3N=NC(C)=C(C)C3C2)=C(OC4CCOC4)C1] | 41,88 ± 12,55 RUs |  |  | Positive | Negative | 2.33 °C |  |
| CCOc1ccc(-n2nc(Cc3ccncc3)nc2-c2cn(C)c(=O)c3ccccc23)cc1 [Compound 21, CCOC=1C=CC(=CC1)N2N=C(CC=3C=CN=CC3)N=C2C4=CN(C)C(=O)C=5C=CC=CC45] | 38,73 ± 19,2 RUs |  |  | Negative |  | 2.33 °C | 0.552 µM |
| CCCc1c(C(=O)N2CCOC(Cn3cc(-c4ccsc4)nn3)C2)[nH]c(C)c1C(C)=O (stereo not drawn) [Compound 22, CCCC1=C(NC(C)=C1C(=O)C)C(=O)N2CCOC(CN3C=C(N=N3)C=4C=CSC4)C2] | 20,06 ± 0,43 RUs |  |  | Positive |  | 2.02 °C | 0.046 µM |
| CC(C)=CC(=O)NCCC1CCN(C(=O)c2cn(C)c(=O)c3ccccc23)C1 (stereo not drawn) [Compound 23, CC(=CC(=O)NCCC1CCN(C1)C(=O)C2=CN(C)C(=O)C=3C=CC=CC23)C] | 5,93 ± 1,05 RUs |  |  | Negative |  | 2.61 °C | 0.00344 µM |
| Cc1nn(C)cc1C(=O)NC1CCC2(CC1)CCN(C(=O)c1sc3nnc(C)c(C)c3c1N)CC2 [Compound 24, CC1=NN(C)C=C1C(=O)NC2CCC3(CC2)CCN(CC3)C(=O)C=4SC=5N=NC(C)=C(C)C5C4N] | 40,95 ± 7,16 RUs |  |  | Positive |  | 2.35 °C | 1.76 µM |
| CCCc1c(C(=O)N2CCC(F)(F)C(CNC(=O)c3nc(C)c(C)s3)C2)[nH]c(C)c1C(C)=O (stereo not drawn) [Compound 25, CCCC1=C(NC(C)=C1C(=O)C)C(=O)N2CCC(F)(F)C(CNC(=O)C3=NC(C)=C(C)S3)C2] | 22,43 ± 8,33 RUs |  |  | Negative |  | 2.41 °C | 0.149 µM |
| CCCc1c(C(=O)N2CCOC(CN(C)C(=O)c3cccn3C)C2)[nH]c(C)c1C(C)=O (stereo not drawn) [Compound 26, CCCC1=C(NC(C)=C1C(=O)C)C(=O)N2CCOC(CN(C)C(=O)C3=CC=CN3C)C2] | 22,04 ± 8,53 RUs |  |  | Negative |  | 2.61 °C | 1.02 µM |
| COc1cccc(-n2c(C)nnc2SCC(=O)NC2(CO)CCCCCCC2)c1 [Compound 27, COC=1C=CC=C(C1)N2C(C)=NN=C2SCC(=O)NC3(CO)CCCCCCC3] | 28,33 ± 20,88 RUs | -0.98 °C |  | Negative | Negative |  |  |
| COc1ccc(-n2c(C)nnc2SCC(=O)NCC2(N)CCOCC2)cc1 [Compound 28, COC=1C=CC(=CC1)N2C(C)=NN=C2SCC(=O)NCC3(N)CCOCC3] | 16,66 ± 3,56 RUs |  |  | Positive | Negative | 0.36 °C |  |
| CC(=O)c1c(C)[nH]c(C(=O)N2CCCC(c3cn(CC4CC5CC5C4)nn3)C2)c1C (stereo not drawn) [Compound 29, CC(=O)C1=C(C)NC(C(=O)N2CCCC(C2)C3=CN(CC4CC5CC5C4)N=N3)=C1C] |  |  |  | Negative | Negative | -1.17 °C |  |
| COc1cccc(-n2c(C)nnc2SCC(=O)N2CCCN(C(=O)c3cc(F)c[nH]3)CC2)c1 [Compound 30, COC=1C=CC=C(C1)N2C(C)=NN=C2SCC(=O)N3CCCN(CC3)C(=O)C4=CC(F)=CN4] | 17,68 ± 18,73 RUs |  |  | Negative | Negative | 0.43 °C |  |
| CCn1nnc2cc(C(=O)N3CCC(CCNC(=O)c4nc(O)sc4C)C3)ccc21 (stereo not drawn) [Compound 31, CCN1N=NC=2C=C(C=CC12)C(=O)N3CCC(CCNC(=O)C=4N=C(O)SC4C)C3] | 8,73 ± 4,6 RUs |  |  | Negative | Negative | 0.02 °C |  |
| COc1cccc(-n2c(C)nnc2SCC(=O)NC2CN(C(=O)C3CCOCC3)CC23CC3)c1 (stereo not drawn) [Compound 32, COC=1C=CC=C(C1)N2C(C)=NN=C2SCC(=O)NC3CN(CC43CC4)C(=O)C5CCOCC5] | 3,3 ± 1,9 RUs |  |  | Negative |  | 0.87 °C | 0.386 µM |
| CCCc1c(C(=O)N2CCC(Cc3cn(-c4cccc(F)c4C)nn3)C2)[nH]c(C)c1C(C)=O (stereo not drawn) [Compound 33, CCCC1=C(NC(C)=C1C(=O)C)C(=O)N2CCC(CC3=CN(N=N3)C=4C=CC=C(F)C4C)C2] | 8,85 ± 1,09 RUs |  |  | Negative | Negative | 0.1 °C |  |
| Cc1cc(C)n2nc(NC(=O)N3CCC(F)(F)C4(CCOC4)C3)nc2n1 (stereo not drawn) [Compound 68, CC=1C=C(C)N2N=C(NC(=O)N3CCC(F)(F)C4(CCOC4)C3)N=C2N1] | 9,66 ± 4,71 RUs |  |  | Negative |  | 1.11 °C |  |
